These are literature values, as cited in patent US11725135B2 (priority 2019, dated 2023).

Each structure is given as a SMILES string.

As to `F[Si-2](F)(F)(F)(F)F.[Na+].[Na+]` [Na2SiF6], the “concentration above which precipitation occurs / solubility” value is 6400 µg/mL. Regarding `F[Si-2](F)(F)(F)(F)F.[K+].[K+]` [Example K2SiF6, potassium hexafluorosilicate], the “concentration above which precipitation occurs / solubility” value was 1800 µg/mL.
